Results published in patent US4359462A, “Antibiotic 67-121, a new polyene antifungal antibiotic produced by Actinoplanes caeruleus” (priority 1980, dated 1982).
In brackets after ≈: the same amount, converted by molar mass. Where two headings read alike, the source gives them in different places.

Tests used:
[1] = Acute toxicity in male CF 1 mice; conditions: mouse, in vivo
Method: Similarly, in another series of tests the acute toxicity of antibiotics 67-121A, 67-121B and 67121C were determined in male CF 1 mice.

Candida albicans [2] = assay: In vivo protective activity in mice against Candida albicans, single dose one hour after infection; design: species or system CF 1 mice; conditions: read-out: PD50
Method: (§1) The in vivo protective activity of the antibiotic products in mice (Carworth farm CF 1 mice, each weighing about 20 g.) against Candida albicans was determined. The antibiotic was administered by the stated route in an aqueous vehicle containing 0.5% carboxymethyl cellulose and in two doses. One dose was administered shortly before intravenous infection with a lethal dose of Candida albicans and the other dose was administered 4 hours after infection. Most of the unprotected control mice died within 24 to 48 hours after infection. The survival rate was determined at the end of 24 and 48 hours and from this using standard procedures the PD50 values were determined.
The PD50 values for antibiotics 67-121A, 67-121B and 67-121C using CF 1 mice were determined using essentially the above described method, with the exception that the antibiotic was administered as a single dose one hour after infection with Candida albicans.
The PD50 values were determined on survivors 72 hours after infection. Of the untreated, infected control mice, 80% died within 24 hours and 100% within 48 hours.

pKa = conditions: 66% aqueous dimethylformamide, 66% aqueous dimethyl formamide
physchem = conditions: 66% aqueous dimethylformamide
Torulopsis = assay: In vitro antifungal activity, MIC by tube dilution; assay type: cell-based; conditions: two strains of Torulopsis; same conditions (48 hours)
Method: (§2) For reference, data on candicidin are also given. The quoted minimal inhibitory concentrations (MIC) were obtained by conventional tube dilution techniques using Sabouraud's dextrose broth.
(§3) As representative of the component antibiotics, antibiotic 67-121A and antibiotic 67-121C were tested in the same manner as the complex. Antibiotic 67-121A gave MIC values of from less than 0.01 up to 0.03 meg/ml. against 18 strains of Candida albicans, while antibiotic 67-121C gave MIC values of 0.05 to 0.3 meg/ml. against 9 strains of Candida albicans after incubation times of 48 hours. Further testing of antibiotic 67-121C under the same conditions gave MIC values of 0.3 meg/ml. against two strains of Torulopsis and a single strain of Cryotococcus.

Cryotococcus = assay: In vitro antifungal activity, MIC by tube dilution; assay type: cell-based; conditions: single strain; same conditions (48 hours)
Method: as §2, §3

mice = assay: Acute toxicity in mice; assay type: in vivo
Method: The acute toxicity of the antibiotic 67-121 complex in mice was determined via intraperitoneal (I.P.) and subcutaneous (S.C.) administration. For comparison, the values of candicidin were determined.

Candida albicans [3] = assay: In vivo protective activity in mice against lethal Candida albicans infection, two doses; design: species or system mice (Carworth farm CF 1); conditions: survivors 48 hours after infection
Method: as §1
The results obtained for the Antibiotic 67-121 complex are given in Table 5 together with data for candicidin (for comparison purposes). The PD50 values were determined on survivors 48 hours after infection.

Candida albicans [4] = assay: In vitro antifungal activity, MIC by tube dilution (Sabouraud's dextrose broth); assay type: cell-based
Method: as §2, §3

Terulopsis glabrata = assay: In vitro antifungal activity, MIC by tube dilution; assay type: cell-based
From the text: as §2

Trichophyton soudanese = assay: In vitro antifungal activity, MIC by tube dilution; assay type: cell-based; conditions: strain 2; 72 hrs.
From the text: as §2

Aspergillus niger = assay: In vitro antifungal activity, MIC by tube dilution; assay type: cell-based; conditions: 72 hrs.
From the text: as §2

[5] = system: Trichophyton mentagrophytes; assay: In vitro antifungal activity, MIC by tube dilution; assay type: cell-based; conditions: 72 hrs.
From the text: as §2

[6] = Oral, single dose one hour after infection, survivors 72 hours after infection
[7] = sc, Subcutaneous, single dose one hour after infection, survivors 72 hours after infection

CNc1ccc(C(=O)CC(O)CCC(C)C2OC(=O)CC(O)CC(O)CC(O)CC(O)CC(O)CC(O)CC3(O)CC(O)C(C(=O)O)C(CC(OC4OC(C)C(O)C(N)C4O)C=CC=CC=CC=CC=CC=CC=CC2C)O3)cc1 (centres unmarked) [Antibiotic 67-121A]
LD50 ([1]; ip, I.P.): 2.4 mg/kg
LD50 ([1]; sc, S.C.): > 50 mg/kg
LD50 ([1]; Oral): > 50 mg/kg
ED50 (Candida albicans [2]; po, 72 h): 1.5 mg/kg
ED50 (Candida albicans [2]; sc, 72 h): 2.5 mg/kg
pKa (pKa; pka (COO^-)): 6
pKa (pKa; pka (NH3^+)): 9

CC1C=CC=CC=CC=CC=CC=CC=CC(OC2OC(C)C(O)C(N)C2O)CC2OC(O)(CC(O)CC(O)CC(O)CC(O)CC(O)CC(O)CC(=O)OC1C(C)CCC(O)CC(=O)c1ccc(N)cc1)CC(O)C2C(=O)O (centres unmarked) [Antibiotic 67-121B]
LD50 ([1]; ip): 6 mg/kg
LD50 ([1]; po): > 50 mg/kg
LD50 ([1]; sc): > 50 mg/kg
pKa (physchem; pka (COO^-)): 6.3
pKa (physchem; pka (NH3^+)): 9
ED50 (Candida albicans [2]; [6]): 18 mg/kg
ED50 (Candida albicans [2]; [7]): 15 mg/kg

CNc1ccc(C(=O)CC(O)CCC(C)C2OC(=O)CC(O)CC(O)CC(O)CC(O)CC(O)CC(O)CC3(O)CC(O)C(C(=O)O)C(CC(OC4OC(C)C(OC5OC(CO)C(O)C(O)C5O)C(N)C4O)C=CC=CC=CC=CC=CC=CC=CC2C)O3)cc1 (centres unmarked) [Antibiotic 67-121C]
MIC (Torulopsis): 0.3 µg/mL (≈ 0.232 µM)
MIC (Cryotococcus): 0.3 µg/mL (≈ 0.232 µM)
LD50 ([1]; ip): 6 mg/kg
pKa (physchem; pka (COO^-)): 6
pKa (physchem; pka (NH3^+)): 9
ED50 (Candida albicans [2]; [6]): 1.5 mg/kg
ED50 (Candida albicans [2]; [7]): 2.1 mg/kg

Candicidin
LD50 (mice; I.P.): 8 to 22 mg/kg
LD50 (mice; S.C.): 300 mg/kg
PD50 (Candida albicans [3]; Test 1, Oral): 25 mg/kg
PD50 (Candida albicans [3]; Test 1, Subcutaneous): 5 mg/kg
PD50 (Candida albicans [3]; Test 2, Oral): 5 mg/kg
PD50 (Candida albicans [3]; Test 2, Subcutaneous): 5 mg/kg
PD50 (Candida albicans [3]; Test 3, Subcutaneous): 25 mg/kg
PD50 (Candida albicans [3]; Test 4, Oral): 40 mg/kg
PD50 (Candida albicans [3]; Test 4, Subcutaneous): 2.5 mg/kg
Minimum Inhibitory Concentration (M.I.C.) (Candida albicans [4]; strain 401, 24 hrs.): 0.8 meg/ml
Minimum Inhibitory Concentration (M.I.C.) (Candida albicans [4]; strain 401, 48 hrs.): 3.0 meg/ml
Minimum Inhibitory Concentration (M.I.C.) (Candida albicans [4]; strain 402, 24 hrs.): 0.03 meg/ml
Minimum Inhibitory Concentration (M.I.C.) (Candida albicans [4]; strain 402, 48 hrs.): 0.08 meg/ml
Minimum Inhibitory Concentration (M.I.C.) (Candida albicans [4]; strain 403, 24 hrs.): 0.03 meg/ml
Minimum Inhibitory Concentration (M.I.C.) (Candida albicans [4]; strain 403, 48 hrs.): 0.08 meg/ml
Minimum Inhibitory Concentration (M.I.C.) (Candida albicans [4]; strain 404, 24 hrs.): 0.8 meg/ml
Minimum Inhibitory Concentration (M.I.C.) (Candida albicans [4]; strain 404, 48 hrs.): 3.0 meg/ml
Minimum Inhibitory Concentration (M.I.C.) (Candida albicans [4]; strain 406, 24 hrs.): 0.03 meg/ml
Minimum Inhibitory Concentration (M.I.C.) (Candida albicans [4]; strain 406, 48 hrs.): 0.08 meg/ml
Minimum Inhibitory Concentration (M.I.C.) (Candida albicans [4]; strain 420, 24 hrs.): 3.0 meg/ml
Minimum Inhibitory Concentration (M.I.C.) (Candida albicans [4]; strain 420, 48 hrs.): 7.5 meg/ml
Minimum Inhibitory Concentration (M.I.C.) (Terulopsis glabrata; strain 1, 24 hrs.): 0.03 meg/ml
Minimum Inhibitory Concentration (M.I.C.) (Terulopsis glabrata; strain 1, 48 hrs.): 0.3 meg/ml
Minimum Inhibitory Concentration (M.I.C.) (Terulopsis glabrata; strain 2, 24 hrs.): 0.03 meg/ml
Minimum Inhibitory Concentration (M.I.C.) (Terulopsis glabrata; strain 2, 48 hrs.): 0.08 meg/ml
Minimum Inhibitory Concentration (M.I.C.) (Terulopsis glabrata; strain 3, 24 hrs.): 0.03 meg/ml
Minimum Inhibitory Concentration (M.I.C.) (Terulopsis glabrata; strain 3, 48 hrs.): 0.08 meg/ml
Minimum Inhibitory Concentration (M.I.C.) (Terulopsis glabrata; strain 16, 24 hrs.): 0.03 meg/ml
Minimum Inhibitory Concentration (M.I.C.) (Terulopsis glabrata; strain 16, 48 hrs.): 0.3 meg/ml
Minimum Inhibitory Concentration (M.I.C.) (Terulopsis glabrata; strain 17, 24 hrs.): 0.03 meg/ml
Minimum Inhibitory Concentration (M.I.C.) (Terulopsis glabrata; strain 17, 48 hrs.): 0.08 meg/ml
Minimum Inhibitory Concentration (M.I.C.) (Trichophyton soudanese): 25 meg/ml
Minimum Inhibitory Concentration (M.I.C.) (Aspergillus niger): 7.5 meg/ml
Minimum Inhibitory Concentration (M.I.C.) ([5]; strain 1A): 17.5 meg/ml
Minimum Inhibitory Concentration (M.I.C.) ([5]; strain 17): 25 meg/ml
